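In this assay, cells in 96-well plates receive the compound at five concentrations for 48 hours. Endpoints are linearly interpolated between the surrounding concentrations. TGI is the concentration that stops growth completely.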
Assays:
Experiment in all cases: NCI anticancer screen, dose series, 48 h
786-0 renal = tested on: 786-0 renal
A498 renal = tested on: A498 renal
A549 NSCLC = tested on: A549 NSCLC
ACHN renal = tested on: ACHN renal
CAKI-1 renal = tested on: CAKI-1 renal
CCRF-CEM leukemia = tested on: CCRF-CEM leukemia
COLO 205 colon = tested on: COLO 205 colon
DU-145 prostate = tested on: DU-145 prostate
EKVX NSCLC = tested on: EKVX NSCLC
HCC-2998 colon = tested on: HCC-2998 colon
HCT-116 colon = tested on: HCT-116 colon
HCT-15 colon = tested on: HCT-15 colon
HL-60(TB) leukemia = tested on: HL-60(TB) leukemia
HOP-62 NSCLC = tested on: HOP-62 NSCLC
HOP-92 NSCLC = tested on: HOP-92 NSCLC
HS 578T breast = tested on: HS 578T breast
HT29 colon = tested on: HT29 colon
IGROV1 ovarian = tested on: IGROV1 ovarian
K-562 leukemia = tested on: K-562 leukemia
KM12 colon = tested on: KM12 colon
LOX IMVI melanoma = tested on: LOX IMVI melanoma
M14 melanoma = tested on: M14 melanoma
MALME-3M melanoma = tested on: MALME-3M melanoma
MCF7 breast = tested on: MCF7 breast
MDA-MB-231 breast = tested on: MDA-MB-231 breast
MDA-MB-435 = tested on: MDA-MB-435
MDA-N = tested on: MDA-N
MOLT-4 leukemia = tested on: MOLT-4 leukemia
NCI-H226 lung = tested on: NCI-H226 lung
NCI-H23 lung = tested on: NCI-H23 lung
NCI-H460 lung = tested on: NCI-H460 lung
NCI-H522 lung = tested on: NCI-H522 lung
NCI/ADR-RES ovarian = tested on: NCI/ADR-RES ovarian
OVCAR-3 ovarian = tested on: OVCAR-3 ovarian
OVCAR-4 ovarian = tested on: OVCAR-4 ovarian
OVCAR-5 ovarian = tested on: OVCAR-5 ovarian
OVCAR-8 ovarian = tested on: OVCAR-8 ovarian
PC-3 prostate = tested on: PC-3 prostate
RPMI-8226 leukemia = tested on: RPMI-8226 leukemia
RXF 393 renal = tested on: RXF 393 renal
SF-268 CNS = tested on: SF-268 CNS
SF-295 CNS = tested on: SF-295 CNS
SF-539 CNS = tested on: SF-539 CNS
SK-MEL-2 melanoma = tested on: SK-MEL-2 melanoma
SK-MEL-28 melanoma = tested on: SK-MEL-28 melanoma
SK-MEL-5 melanoma = tested on: SK-MEL-5 melanoma
SK-OV-3 ovarian = tested on: SK-OV-3 ovarian
SN12C renal = tested on: SN12C renal
SNB-19 CNS = tested on: SNB-19 CNS
SR leukemia = tested on: SR leukemia
SW-620 colon = tested on: SW-620 colon
T-47D breast = tested on: T-47D breast
TK-10 renal = tested on: TK-10 renal
U251 CNS = tested on: U251 CNS
UACC-257 melanoma = tested on: UACC-257 melanoma
UO-31 renal = tested on: UO-31 renal
SNB-75 CNS = tested on: SNB-75 CNS
UACC-62 melanoma = tested on: UACC-62 melanoma

## CCOC(=O)C(NC(=O)CC(C)C)(NC(C)C)C(F)(F)F (stereo unspecified)
786-0 renal
  TGI: > 100 µM
A498 renal
  TGI: > 100 µM
A549 NSCLC
  TGI: > 100 µM
ACHN renal
  TGI: > 100 µM
CAKI-1 renal
  TGI: > 100 µM
CCRF-CEM leukemia
  TGI: > 100 µM
COLO 205 colon
  TGI: > 100 µM
DU-145 prostate
  TGI: > 100 µM
EKVX NSCLC
  TGI: > 100 µM
HCC-2998 colon
  TGI: > 100 µM
HCT-116 colon
  TGI: > 100 µM
HCT-15 colon
  TGI: > 100 µM
HL-60(TB) leukemia
  TGI: > 100 µM
HOP-62 NSCLC
  TGI: > 100 µM
HOP-92 NSCLC
  TGI: > 100 µM
HS 578T breast
  TGI: > 100 µM
HT29 colon
  TGI: > 100 µM
IGROV1 ovarian
  TGI: > 100 µM
K-562 leukemia
  TGI: > 100 µM
KM12 colon
  TGI: > 100 µM
LOX IMVI melanoma
  TGI: > 100 µM
M14 melanoma
  TGI: > 100 µM
MALME-3M melanoma
  TGI: > 100 µM
MCF7 breast
  TGI: > 100 µM
MDA-MB-231 breast
  TGI: > 100 µM
MDA-MB-435
  TGI: > 100 µM
MDA-N
  TGI: > 100 µM
MOLT-4 leukemia
  TGI: > 100 µM
NCI-H226 lung
  TGI: > 100 µM
NCI-H23 lung
  TGI: > 100 µM
NCI-H460 lung
  TGI: > 100 µM
NCI-H522 lung
  TGI: > 100 µM
NCI/ADR-RES ovarian
  TGI: > 100 µM
OVCAR-3 ovarian
  TGI: > 100 µM
OVCAR-4 ovarian
  TGI: > 100 µM
OVCAR-5 ovarian
  TGI: > 100 µM
OVCAR-8 ovarian
  TGI: > 100 µM
PC-3 prostate
  TGI: > 100 µM
RPMI-8226 leukemia
  TGI: > 100 µM
RXF 393 renal
  TGI: > 100 µM
SF-268 CNS
  TGI: > 100 µM
SF-295 CNS
  TGI: > 100 µM
SF-539 CNS
  TGI: > 100 µM
SK-MEL-2 melanoma
  TGI: > 100 µM
SK-MEL-28 melanoma
  TGI: > 100 µM
SK-MEL-5 melanoma
  TGI: > 100 µM
SK-OV-3 ovarian
  TGI: > 100 µM
SN12C renal
  TGI: > 100 µM
SNB-19 CNS
  TGI: > 100 µM
SR leukemia
  TGI: > 100 µM
SW-620 colon
  TGI: > 100 µM
T-47D breast
  TGI: > 100 µM
TK-10 renal
  TGI: > 100 µM
U251 CNS
  TGI: > 100 µM
UACC-257 melanoma
  TGI: > 100 µM
UO-31 renal
  TGI: > 100 µM

## O=C(O)c1cc(-c2ccc3c(O)ccc(O)c3c2)ccc1O
786-0 renal
  TGI: 30.2 µM
A498 renal
  TGI: 32 µM
A549 NSCLC
  TGI: > 100 µM
ACHN renal
  TGI: 33.4 µM
CAKI-1 renal
  TGI: 30.2 µM
CCRF-CEM leukemia
  TGI: 5.58 µM
COLO 205 colon
  TGI: 39.4 µM
DU-145 prostate
  TGI: 52.3 µM
EKVX NSCLC
  TGI: 34.7 µM
HCC-2998 colon
  TGI: 32.6 µM
HCT-116 colon
  TGI: 32.6 µM
HCT-15 colon
  TGI: 34.4 µM
HL-60(TB) leukemia
  TGI: > 100 µM
HOP-62 NSCLC
  TGI: 98.9 µM
HS 578T breast
  TGI: 73.5 µM
HT29 colon
  TGI: 43.9 µM
IGROV1 ovarian
  TGI: 31.9 µM
KM12 colon
  TGI: 43.2 µM
LOX IMVI melanoma
  TGI: 29.8 µM
M14 melanoma
  TGI: 47.7 µM
MALME-3M melanoma
  TGI: 36.3 µM
MCF7 breast
  TGI: 39.6 µM
MDA-MB-231 breast
  TGI: 39.6 µM
MDA-MB-435
  TGI: 34.4 µM
MDA-N
  TGI: 31.6 µM
MOLT-4 leukemia
  TGI: 16.3 µM
NCI-H226 lung
  TGI: 44 µM
NCI-H23 lung
  TGI: 64.9 µM
NCI-H460 lung
  TGI: 48.5 µM
NCI-H522 lung
  TGI: 36.5 µM
NCI/ADR-RES ovarian
  TGI: 82.4 µM
OVCAR-3 ovarian
  TGI: 43.5 µM
OVCAR-4 ovarian
  TGI: 31.2 µM
OVCAR-5 ovarian
  TGI: 32.3 µM
OVCAR-8 ovarian
  TGI: 54.4 µM
PC-3 prostate
  TGI: 26.3 µM
RPMI-8226 leukemia
  TGI: > 100 µM
RXF 393 renal
  TGI: 27.9 µM
SF-268 CNS
  TGI: 82.9 µM
SF-295 CNS
  TGI: 33.8 µM
SF-539 CNS
  TGI: 30.8 µM
SK-MEL-2 melanoma
  TGI: 34.3 µM
SK-MEL-28 melanoma
  TGI: 41.5 µM
SK-MEL-5 melanoma
  TGI: 28.2 µM
SN12C renal
  TGI: 31.6 µM
SNB-19 CNS
  TGI: > 100 µM
SNB-75 CNS
  TGI: 60.1 µM
SR leukemia
  TGI: > 100 µM
SW-620 colon
  TGI: 28.6 µM
T-47D breast
  TGI: 35.3 µM
TK-10 renal
  TGI: 35.6 µM
U251 CNS
  TGI: 41.3 µM
UACC-257 melanoma
  TGI: 33 µM
UACC-62 melanoma
  TGI: 33.8 µM
UO-31 renal
  TGI: 31.3 µM
